According to the supplement of paper PMC10307832:

Compound: CCN1CCC(CC1)N2C=C(N=N2)CNC3=CC4=C(C(=CN=C4C(=C3)Cl)C#N)NC5=CC(=C(C=C5)F)Cl [KIN001-266]
Assay: relative viability (nuclei count vs DMSO), 5 days (fraction); higher = more cells survive
Summary of the method: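 Viability was read as treated-well nuclei divided by vehicle-well nuclei, using the median across plates. Lung cancer cell lines in 1536-well plates were kept overnight at 37 °C, pinned with five √10-spaced library-drug doses, and after 5 days were Hoechst-stained, imaged at 4× and counted in MetaXpress. Plates passed only with control CV below 25% and at least one doubling.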

| Cell Line | relative viability (0.08 µM) | relative viability (0.253 µM) | relative viability (0.8 µM) | relative viability (2.53 µM) | relative viability (8 µM) |
| --- | --- | --- | --- | --- | --- |
| 201T | 1.02 | 1 | 0.959 | 0.995 | 0.956 |
| A549 | 1.02 | 0.974 | 1.03 | 0.891 | 0.939 |
| A-427 | 1.04 | 1.06 | 1.05 | 0.928 | 0.953 |
| ABC-1 | 1.03 | 1.11 | 1.12 | 0.959 | 0.774 |
| BEN | 0.991 | 0.931 | 1.06 | 0.864 | 0.996 |
| CAL-12T | 1.07 | 0.965 | 0.956 | 1.09 | 0.994 |
| COR-L23 | 1 | 0.984 | 1.02 | 0.983 | 0.828 |
| COR-L 105 | 0.942 | 0.967 | 0.963 | 1 | 0.902 |
| Calu-6 | 0.995 | 1.04 | 1.02 | 0.969 | 0.798 |
| ChaGo-K-1 | 1.04 | 1.03 | 0.92 | 0.929 | 0.886 |
| EBC-1 | 1.04 | 1.02 | 0.954 | 0.988 | 0.704 |
| EKVX | 0.989 | 1 | 0.841 | 0.868 | 0.941 |
| EMC-BAC-2 | 1.07 | 1.21 | 0.98 | 1.07 | 0.989 |
| EPLC-272H | 1.08 | 1 | 0.915 | 0.893 | 0.686 |
| H3255 | 1.01 | 1.06 | 0.96 | 0.96 | 0.78 |
| HARA | 0.959 | 1.04 | 0.937 | 1.06 | 0.747 |
| HCC-15 | 1.02 | 1.03 | 0.875 | 0.868 | 0.689 |
| HCC-44 | 0.967 | 0.994 | 0.983 | 0.968 | 1.08 |
| HCC-78 | 0.964 | 0.998 | 0.913 | 0.99 | 0.956 |
| HCC-366 | 1.02 | 1.01 | 0.992 | 1.01 | 0.969 |

| Cell Line | relative viability (0.08 µM) | relative viability (0.253 µM) | relative viability (0.8 µM) | relative viability (2.53 µM) | relative viability (8 µM) |
| --- | --- | --- | --- | --- | --- |
| HCC-827 | 1.03 | 1.05 | 0.715 | 1.08 | 0.98 |
| HOP-62 | 1.01 | 1.05 | 1.02 | 1.02 | 0.995 |
| IA-LM | 0.95 | 0.956 | 0.888 | 1 | 0.931 |
| LC-2-ad | 1.05 | 0.997 | 0.947 | 1.04 | 0.962 |
| LCLC-97TM1 | 0.942 | 0.853 | 0.917 | 0.866 | 0.906 |
| LCLC-103H | 1.08 | 1.04 | 1.08 | 1.06 | 1.02 |
| LK-2 | 1.14 | 0.885 | 1.2 | 0.969 | 1.12 |
| LOU-NH91 | 1.07 | 1.04 | 0.737 | 0.85 | 0.845 |
| LU99A | 0.985 | 0.952 | 0.958 | 0.847 | 0.849 |
| LXF-289 | 0.949 | 0.984 | 1 | 1 | 1.06 |
| NCI-H23 | 1.01 | 1.03 | 0.935 | 0.917 | 0.858 |
| NCI-H322M | 1.04 | 1 | 0.928 | 0.785 | 0.779 |
| NCI-H358 | 0.893 | 0.98 | 0.917 | 0.828 | 0.45 |
| NCI-H441 | 1.11 | 1.07 | 1.1 | 0.939 | 0.789 |
| NCI-H460 | 1.01 | 1.01 | 0.967 | 0.951 | 1.02 |
| NCI-H520 | 1.01 | 1.05 | 1.08 | 0.943 | 1.01 |
| NCI-H522 | 1.13 | 0.937 | 1.05 | 0.925 | 0.914 |
| NCI-H596 | 1.09 | 0.938 | 0.878 | 0.987 | 0.866 |
| NCI-H647 | 1.03 | 1.01 | 1.11 | 0.94 | 0.942 |
| NCI-H650 | 1.03 | 0.972 | 1.13 | 0.955 | 1.15 |
